Reference: US20240041042A1, “1-(PYRIDYL)-5-AZINYLPYRAZOLE DERIVATIVES, AND THEIR USE FOR CONTROL OF UNDESIRED PLANT GROWTH” (Bayer Aktiengesellschaft, priority 2020, published 2024)
Read-outs that look alike come from different tables or passages of the source.

Columns and labels:
Format in all cases: in vivo
[1] = test system: Alopecurus myosuroides (ALOMY); experiment: Pre-emergence herbicidal action against ALOMY; conditions: scored visually after about 3 weeks, 100% = plants have died
Procedure, shortened: (§1)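 Dosages of 320 g/ha or less; pre-emergence; WP or EC in aqueous spray, 0.5% additive, 600 l/ha; greenhouse; visual % effect after ~3 wk relative to control pots.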

[2] = test system: Amaranthus retroflexus (AMARE); experiment: Pre-emergence herbicidal action against AMARE; conditions: visual scoring after about 3 weeks vs untreated controls
Procedure, shortened: as §1

Avena fatua (AVEFA) [3] = experiment: Pre-emergence herbicidal action against AVEFA; conditions: visual scoring after about 3 weeks vs untreated controls
Procedure, shortened: as §1

[4] = test system: Digitaria sanguinalis (DIGSA); experiment: Pre-emergence herbicidal action against DIGSA
Procedure, shortened: as §1

[5] = test system: Echinochloa crus-galli (ECHCG); experiment: Pre-emergence herbicidal action against ECHCG; conditions: dosage 320 g/ha
Procedure, shortened: as §1

Lolium rigidum (LOLRI) [6] = experiment: Pre-emergence herbicidal action against LOLRI
Procedure, shortened: as §1

[7] = test system: Matricaria inodora (MATIN); experiment: Pre-emergence herbicidal action against MATIN; conditions: dosage 320 g/ha
Procedure, shortened: as §1

[8] = test system: Pharbitis purpurea (PHBPU); experiment: Pre-emergence herbicidal action against PHBPU; conditions: dosage 320 g/ha
Procedure, shortened: as §1

[9] = test system: Polygonum convolvulus (POLCO); experiment: Pre-emergence herbicidal action against POLCO; conditions: dosage 320 g/ha
Procedure, shortened: as §1

Viola tricolor (VIOTR) [10] = experiment: Pre-emergence herbicidal action against VIOTR
Procedure, shortened: as §1

Zea mays (ZEAMX) [11] = conditions: pre-emergence, 80 g/ha, crop plant compatibility, in comparison to untreated controls
Procedure, shortened: (§2)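 Crop injury rated visually in percent against untreated plants roughly 3 weeks after treatment (0% no effect, 100% plants dead). Compounds, as WP or EC with 0.5% additive in 600 l/ha water, were applied to the covering soil right after sowing; greenhouse growth. Suffixes a, b, c denote different dosages.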

[12] = test system: Alopecurus myosuroides (ALOMY); experiment: Post-emergence herbicidal action against ALOMY; conditions: visual rating about 3 weeks after treatment vs untreated controls (100% = plants have died, 0% = like control plants)
Procedure, shortened: (§3)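 Greenhouse plants sprayed at the one-leaf stage, 2–3 weeks after sowing, with WP or EC formulations plus 0.5% additive at 600 l/ha water. Activity rated visually after about 3 weeks versus untreated controls (100% = dead, 0% = like control), at 320 g/ha or lower.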

[13] = test system: Amaranthus retroflexus (AMARE); experiment: Post-emergence herbicidal action against AMARE
Procedure, shortened: as §3

Avena fatua (AVEFA) [14] = experiment: Post-emergence herbicidal action against AVEFA; conditions: visual rating about 3 weeks after treatment
Procedure, shortened: as §3

[15] = test system: Digitaria sanguinalis (DIGSA); experiment: Post-emergence herbicidal action against DIGSA; conditions: visual rating about 3 weeks after treatment
Procedure, shortened: as §3

[16] = test system: Echinochloa crus-galli (ECHCG); experiment: Post-emergence herbicidal action against ECHCG
Procedure, shortened: as §3

Lolium rigidum (LOLRI) [17] = experiment: Post-emergence herbicidal action against LOLRI
Procedure, shortened: as §3

[18] = test system: Matricaria inodora (MATIN); experiment: Post-emergence herbicidal action against MATIN; conditions: dosage 320 g/ha
Procedure, shortened: as §3

[19] = test system: Pharbitis purpurea (PHBPU); experiment: Post-emergence herbicidal action against PHBPU
Procedure, shortened: as §3

[20] = test system: Polygonum convolvulus (POLCO); experiment: Post-emergence herbicidal action against POLCO
Procedure, shortened: as §3

Setaria viridis (SETVI) [21] = experiment: Post-emergence herbicidal action against SETVI
Procedure, shortened: as §3

Viola tricolor (VIOTR) [22] = experiment: Post-emergence herbicidal action against VIOTR
Procedure, shortened: as §3

Oryza sativa (ORYSA) [23] = conditions: crop plant compatibility
Procedure, shortened: (§4)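 Visual rating (% effect vs. untreated plants; 100% = plant death) made about 3 weeks after treatment. Plants had been sprayed at one-leaf stage, 2–3 weeks post-sowing, with aqueous WP/EC preparations containing 0.5% additive, 600 l/ha water volume; a, b, c mark dose levels.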

Setaria viridis (SETVI) [24] = experiment: Pre-emergence herbicidal action against SETVI; conditions: dosage 320 g/ha
Procedure, shortened: as §1

[25] = test system: Verconica persica (VERPE); experiment: Pre-emergence herbicidal action against VERPE; conditions: dosage 320 g/ha
Procedure, shortened: as §1

[26] = test system: Verconica persica (VERPE); experiment: Post-emergence herbicidal action against VERPE
Procedure, shortened: as §3

Oryza sativa (ORYSA) [27] = conditions: pre-emergence, 80 g/ha, crop plant compatibility, in comparison to untreated controls
Procedure, shortened: as §2

Zea mays (ZEAMX) [28] = conditions: 20 g/ha, ZEAMX, effect in comparison to untreated controls
Procedure, shortened: as §4

[29] = 80 g/ha, visual scoring after about 3 weeks vs untreated controls
[30] = 320 g/ha, visual rating about 3 weeks after treatment
[31] = 80 g/ha, effect in comparison to untreated controls
[32] = 80 g/ha, visual rating about 3 weeks after treatment vs untreated controls (100% = plants have died, 0% = like control plants)

Structure (SMILES)	Pre-emergence action against ALOMY ([1]; 80 g/ha)	Pre-emergence action against ALOMY ([1]; 320 g/ha)	Pre-emergence action against AMARE in % ([2]; 320 g/ha)	Pre-emergence action against AVEFA in % (Avena fatua (AVEFA) [3]; 320 g/ha)	Pre-emergence action against DIGSA in % [4, 29]	Pre-emergence action against DIGSA in % ([4]; dosage 320 g/ha)	Pre-emergence action against ECHCG in % [5]	Pre-emergence action against LOLRI in % (Lolium rigidum (LOLRI) [6]; dosage 80 g/ha)	Pre-emergence action against LOLRI in % (Lolium rigidum (LOLRI) [6]; dosage 320 g/ha)	Pre-emergence action against MATIN in % [7]	Pre-emergence action against PHBPU in % [8]	Pre-emergence action against POLCO in % [9]	Pre-emergence action against VIOTR in % (Viola tricolor (VIOTR) [10]; 320 g/ha, Viola tricolor)	Pre-emergence action against ZEAMX in % (Zea mays (ZEAMX) [11])	Post-emergence action against ALOMY in % ([12]; 80 g/ha)	Post-emergence action against ALOMY in % ([12]; 320 g/ha)	Post-emergence action against AMARE in % [13, 30]	Post-emergence action against AVEFA in % (Avena fatua (AVEFA) [14]; 80 g/ha)	Post-emergence action against DIGSA in % ([15]; 320 g/ha)	Post-emergence action against ORYSA in % (Oryza sativa (ORYSA) [23]; [31])	also measured
COC(=O)CCOC(=O)C(C)Oc1nn(-c2ccccn2)c(-c2ccc(F)nc2)c1C(F)(F)F (centres unmarked) [Example I-293]	90%	100%	100%	90%	80%	100%	90%	100%	100%	80%	80%	80%	100%	20%	90%	90%	80%	80%	80%	0%	Pre-emergence action against AVEFA in % (Avena fatua (AVEFA) [3]; 80 g/ha): 80%; Pre-emergence action against VIOTR in % (Viola tricolor (VIOTR) [10]; dosage 80 g/ha): 80%; Post-emergence action against AVEFA in % (Avena fatua (AVEFA) [14]; 320 g/ha): 90%; Post-emergence action against ECHCG in % ([16]; dosage 320 g/ha): 80%; Post-emergence action against LOLRI in % (Lolium rigidum (LOLRI) [17]; dosage 80 g/ha): 80%; Post-emergence action against LOLRI in % (Lolium rigidum (LOLRI) [17]; dosage 320 g/ha): 80%; Post-emergence action against MATIN in % [18]: 80%; Post-emergence action against PHBPU in % ([19]; dosage 320 g/ha): 80%; Post-emergence action against POLCO in % ([20]; dosage 80 g/ha): 80%; Post-emergence action against POLCO in % ([20]; dosage 320 g/ha): 80%; Post-emergence action against SETVI in % (Setaria viridis (SETVI) [21]; dosage 320 g/ha): 80%; Post-emergence action against VIOTR in % (Viola tricolor (VIOTR) [22]; 80 g/ha): 80%; Post-emergence action against VIOTR in % (Viola tricolor (VIOTR) [22]; 320 g/ha): 80%
COC(=O)CCOC(=O)COc1nn(-c2ccccn2)c(-c2ccc(F)nc2)c1Br [Example I-247]	80%	100%	100%	80%	100%	100%	100%	–	100%	90%	80%	90%	–	20%	–	80%	80%	–	80%	10%	Pre-emergence action against AMARE in % ([2]; 80 g/ha): 80%; Pre-emergence action against SETVI in % (Setaria viridis (SETVI) [24]): 100%; Pre-emergence action against VERPE in % [25]: 90%; Post-emergence action against AMARE in % [13, 32]: 80%; Post-emergence action against DIGSA in % ([15]; 80 g/ha): 80%; Post-emergence action against ECHCG in % ([16]; dosage 80 g/ha): 80%; Post-emergence action against ECHCG in % ([16]; dosage 320 g/ha): 80%; Post-emergence action against LOLRI in % (Lolium rigidum (LOLRI) [17]; dosage 320 g/ha): 80%; Post-emergence action against PHBPU in % ([19]; dosage 80 g/ha): 90%; Post-emergence action against PHBPU in % ([19]; dosage 320 g/ha): 90%; Post-emergence action against POLCO in % ([20]; dosage 80 g/ha): 80%; Post-emergence action against POLCO in % ([20]; dosage 320 g/ha): 80%; Post-emergence action against SETVI in % (Setaria viridis (SETVI) [21]; dosage 320 g/ha): 80%; Post-emergence action against VERPE in % ([26]; 320 g/ha, VERPE): 80%; Post-emergence action against VERPE in % ([26]; dosage 80 g/ha): 80%; Post-emergence action against VIOTR in % (Viola tricolor (VIOTR) [22]; 80 g/ha): 80%; Post-emergence action against VIOTR in % (Viola tricolor (VIOTR) [22]; 320 g/ha): 80%
CCOC(=O)C(C)Oc1nn(-c2ccccn2)c(-c2ccc(F)nc2)c1C(F)(F)F (centres unmarked) [Example I-107]	90%	90%	100%	80%	–	–	100%	80%	100%	90%	–	80%	100%	–	90%	–	–	90%	–	10%	Pre-emergence action against SETVI in % (Setaria viridis (SETVI) [24]): 100%; Pre-emergence action against ORYSA in % (Oryza sativa (ORYSA) [27]): 10%; Post-emergence action against AMARE in % [13, 32]: 80%; Post-emergence action against LOLRI in % (Lolium rigidum (LOLRI) [17]; dosage 80 g/ha): 80%; Post-emergence action against SETVI in % (Setaria viridis (SETVI) [21]; dosage 80 g/ha): 80%; Post-emergence action against ORYSA in % (Oryza sativa (ORYSA) [23]; 20 g/ha, effect vs untreated controls): 0%; Post-emergence action against ZEAMX in % (crop plant compatibility) (Zea mays (ZEAMX) [28]): 20%
